Tests used:
ENPP1 [1] = molecular target: T1, ENPP1 (Homo sapiens (Human), UniProt P22413); assay: ATP-Glo enzymatic assay (ATP substrate, AMP-Glo readout); type: biochemical; conditions: 25° C. for 60 min, 50 mM Tris pH 8.8
Experimental: (§1) Example A: Enzymatic Assay
(§2) • 1. Diluted compounds in DMSO by hand for 11 points, 3 folds dilution. Then transferred 0.02 μL compounds to 384 assay plate by ECHO. • 2. Added 2 μL specified concentration of ENPP1 to 384 assay plate. Centrifuged 1000 RPM for 1 min. • 3. Added 2 μL specified concentration of ATP to the assay plate. Centrifuged 1000 RPM for 1 min. • 4. Incubated at 25° C. for 60 min. • 5. Added 4 μL AMP-Glo Reagent to the assay plates. • 6. Centrifuged 1000 RPM for 1 min, incubate at 25° C. for 1 hours. • 7. Added 8 μL Kinase Detection Reagent to the assay plates. • 8. Centrifuged 1000 RPM for 1 min, incubated at 25° C. for 1 hours. The final assay reaction mixture contained a buffer of 50 mM Tris pH 8.8, 250 mM NaCl and 0.1% BSA • 9. Read on Envision for US LUM as RLU. • 10. Analyzed the raw data using the equation (V. Data analysis). cGAMP-Glo Assay: • 1. Diluted compounds in DMSO by hand for 11 points, 3 folds dilution. Then transferred 0.02 μL compounds to 384 assay plate by ECHO. • 2. Added 2 μL specified concentration of ENPP1 to 384 assay plate, centrifuged 1000 RPM for 1 min. • 3. Added 2 μL specified concentration of 2′3′-cGAMP to the assay plate, centrifuged 1000 RPM for 1 min. • 4. Incubated at 25° C. for 60 min. • 5. Added 4 μL AMP-Glo Reagent to the assay plates. • 6. Centrifuged 1000 RPM for 1 min, incubated at 25° C. for 1 hours. • 7. Added 8 μL Kinase Detection Reagent to the assay plates. • 8. Centrifuged 1000 RPM for 1 min, incubate at 25° C. for 1 hours. The final assay reaction mixture contained a buffer of 50 mM Tris pH 8.8, 250 mM NaCl and 0.1% BSA • 9. Read on Envision for US LUM as RLU. • 10. Analyzed the raw data using the equation (V. Data analysis).

ENPP1 [2] = molecular target: T1, ENPP1; assay: cGAMP-Glo enzymatic assay (2′3′-cGAMP substrate, AMP-Glo readout); type: biochemical; conditions: substrate 2′3′-cGAMP; 25° C. for 60 min; 50 mM Tris pH 8.8
Experimental: as §1, §2

T1 sequence (P22413 whole entry, species assumed): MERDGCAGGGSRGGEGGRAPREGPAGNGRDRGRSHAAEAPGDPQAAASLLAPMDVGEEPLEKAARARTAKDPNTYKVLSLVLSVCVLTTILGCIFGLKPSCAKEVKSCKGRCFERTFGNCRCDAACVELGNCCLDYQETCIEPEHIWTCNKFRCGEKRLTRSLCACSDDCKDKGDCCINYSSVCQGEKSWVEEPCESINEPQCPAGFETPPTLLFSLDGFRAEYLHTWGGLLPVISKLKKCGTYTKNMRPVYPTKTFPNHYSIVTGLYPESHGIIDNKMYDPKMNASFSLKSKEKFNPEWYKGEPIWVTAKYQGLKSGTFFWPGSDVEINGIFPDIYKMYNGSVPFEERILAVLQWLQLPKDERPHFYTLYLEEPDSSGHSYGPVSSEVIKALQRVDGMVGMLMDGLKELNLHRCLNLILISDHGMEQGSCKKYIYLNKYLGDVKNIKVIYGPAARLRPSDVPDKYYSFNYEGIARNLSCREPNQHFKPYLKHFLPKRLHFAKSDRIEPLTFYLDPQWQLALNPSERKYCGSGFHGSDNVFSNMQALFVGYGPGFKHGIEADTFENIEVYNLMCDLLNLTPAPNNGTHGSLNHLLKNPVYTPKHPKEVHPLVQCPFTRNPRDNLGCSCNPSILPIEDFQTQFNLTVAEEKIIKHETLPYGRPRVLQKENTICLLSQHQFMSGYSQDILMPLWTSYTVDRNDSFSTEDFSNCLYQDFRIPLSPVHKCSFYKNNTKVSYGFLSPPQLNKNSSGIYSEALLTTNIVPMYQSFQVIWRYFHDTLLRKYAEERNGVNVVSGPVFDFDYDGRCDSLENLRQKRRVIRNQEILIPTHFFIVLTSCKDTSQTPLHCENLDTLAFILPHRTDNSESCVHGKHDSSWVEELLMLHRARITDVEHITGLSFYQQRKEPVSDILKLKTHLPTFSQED

| Compound | IC50 (ENPP1 [1]) [nM] | IC50 (ENPP1 [2]) [nM] |
| --- | --- | --- |
| Cc1ncc2nc(C)n(Cc3c(F)cc(S(N)(=O)=O)cc3F)c2c1-c1ccccc1 [Example 26, 4-((2,6-dimethyl-7-phenyl-1H-imidazo[4,5-c]pyridin-1-yl)methyl)-3,5-difluorobenzenesulfonamide] | < 1 | < 1 |
| Cc1ncc2ncn(Cc3c(F)cc(S(N)(=O)=O)cc3F)c2c1-c1ccccc1 [Example 27, 3,5-difluoro-4-((6-methyl-7-phenyl-1H-imidazo[4,5-c]pyridin-1-yl)methyl)benzene sulfonamide] | < 1 | < 1 |
| Cc1ccccc1-c1c(C)ncc2ncn(Cc3c(F)cc(S(N)(=O)=O)cc3F)c12 [Example 28, 3,5-difluoro-4-((6-methyl-7-(o-tolyl)-1H-imidazo[4,5-c]pyridin-1-yl)methyl)benzene sulfonamide] | 10 to 100 | 10 to 100 |
| Cc1ncc2ncn(Cc3ccc(S(N)(=O)=O)cc3)c2c1-c1ccccc1 [Example 29, 4-((6-methyl-7-phenyl-1H-imidazo[4,5-c]pyridin-1-yl)methyl)benzene sulfonamide] | < 1 | < 1 |
| Cc1ncc(-c2ccccc2)c2c1ncn2Cc1ccc(S(N)(=O)=O)cc1 [Example 30, 4-((4-methyl-7-phenyl-1H-imidazo[4,5-c]pyridin-1-yl)methyl)benzene sulfonamide] | < 1 | < 1 |
| Cc1ncc2nc(C)n(Cc3ccc(S(N)(=O)=O)cc3)c2c1-c1ccccc1 [Example 31, 4-((2,6-dimethyl-7-phenyl-1H-imidazo[4,5-c]pyridin-1-yl)methyl)benzene sulfonamide] | < 1 | < 1 |
| Cc1ncc(-c2ccccc2)c2c1nc(C)n2Cc1ccc(S(N)(=O)=O)cc1 [Example 32, 4-((2,4-dimethyl-7-phenyl-1H-imidazo[4,5-c]pyridin-1-yl)methyl)benzene sulfonamide] | < 1 | < 1 |
| Cc1nc2cnc(OC(F)F)c(-c3ccccc3)c2n1Cc1ccc(S(N)(=O)=O)cc1 [Example 33, 4-((6-(difluoromethoxy)-2-methyl-7-phenyl-1H-imidazo[4,5-c]pyridin-1-yl)methyl)benzenesulfonamide] | < 1 | < 1 |
| Cc1ncc2nc(C(F)(F)F)n(Cc3c(F)cc(S(N)(=O)=O)cc3F)c2c1-c1ccccc1 [Example 34, 3,5-difluoro-4-((6-methyl-7-phenyl-2-(trifluoromethyl)-1H-imidazo[4,5-c]pyridin-1-yl)methyl)benzenesulfonamide] | < 1 | < 1 |
| COc1ncc2nc(C)n(C(C)c3ccc(S(N)(=O)=O)cc3)c2c1-c1ccccc1 (stereo not shown) [Example 35, 4-(1-(6-methoxy-2-methyl-7-phenyl-1H-imidazo[4,5-c]pyridin-1-yl)ethyl) benzenesulfonamide] | 1 to 10 | 1 to 10 |
| COc1ncc2nc(C)n(Cc3ccc(S(N)(=O)=O)c(F)c3)c2c1-c1ccccc1 [Example 36, 2-fluoro-4-((6-methoxy-2-methyl-7-phenyl-1H-imidazo[4,5-c]pyridin-1-yl)methyl)benzenesulfonamide] | < 1 | < 1 |
| Cc1ncc2nc(C)n(Cc3ccc(OS(N)(=O)=O)cc3)c2c1-c1ccccc1 [Example 37] | < 1 | < 1 |
| Cc1ncc2nc(C(F)F)n(Cc3c(F)cc(S(N)(=O)=O)cc3F)c2c1-c1ccccc1 [Example 38, 4-((2-(difluoromethyl)-6-methyl-7-phenyl-1H-imidazo[4,5-c]pyridin-1-yl)methyl)-3,5-difluorobenzenesulfonamide] | < 1 | < 1 |
| Cc1ncc2nc(C3CC3)n(Cc3c(F)cc(S(N)(=O)=O)cc3F)c2c1-c1ccccc1 [Example 39, 4-((2-cyclopropyl-6-methyl-7-phenyl-1H-imidazo[4,5-c]pyridin-1-yl)methyl)-3,5-difluorobenzenesulfonamide] | < 1 | < 1 |
| Cc1nc2cncc(-c3ccccc3)c2n1Cc1ccc(S(N)(=O)=O)cc1 [Example 40, 4-((2-methyl-7-phenyl-1H-imidazo[4,5-c]pyridin-1-yl)methyl)benzene sulfonamide] | < 1 | < 1 |
| [2H]C([2H])([2H])c1nc2cnc(C)c(-c3ccccc3)c2n1Cc1c(F)cc(S(N)(=O)=O)cc1F [Example 42, 3,5-difluoro-4-((6-methyl-2-(methyl-d3)-7-phenyl-1H-imidazo[4,5-c]pyridin-1-yl)methyl)benzenesulfonamide] | < 1 | < 1 |
| Cc1nc2cncc(-c3ccccc3)c2n1Cc1c(F)cc(S(N)(=O)=O)cc1F [Example 43, 3,5-difluoro-4-((2-methyl-7-phenyl-1H-imidazo[4,5-c]pyridin-1-yl)methyl)benzenesulfonamide] | < 1 | < 1 |
| Cc1ncc2nc(C)n(Cc3c(F)cc(S(N)(=O)=O)cc3F)c2c1-c1ccccc1F [Example 44, 3,5-difluoro-4-((7-(2-fluorophenyl)-2,6-dimethyl-1H-imidazo[4,5-c]pyridin-1-yl)methyl)benzenesulfonamide] | < 1 | < 1 |
| Cc1ncc2nc(C)n(Cc3c(F)cc(S(N)(=O)=O)cc3F)c2c1-c1cccc(F)c1 [Example 45, 3,5-difluoro-4-((7-(3-fluorophenyl)-2,6-dimethyl-1H-imidazo[4,5-c]pyridin-1-yl)methyl)benzenesulfonamide] | < 1 | < 1 |
| Cc1ncc2nc(C)n(Cc3c(F)cc(S(N)(=O)=O)cc3F)c2c1-c1ccc(F)cc1 [Example 46, 3,5-difluoro-4-((7-(4-fluorophenyl)-2,6-dimethyl-1H-imidazo[4,5-c]pyridin-1-yl)methyl)benzenesulfonamide] | < 1 | < 1 |
| Cc1ncc2nc(CF)n(Cc3c(F)cc(S(N)(=O)=O)cc3F)c2c1-c1ccccc1 [Example 47, 3,5-difluoro-4-((2-(fluoromethyl)-6-methyl-7-phenyl-1H-imidazo[4,5-c]pyridin-1-yl)methyl)benzenesulfonamide] | < 1 | < 1 |
| CCc1ncc2nc(C)n(Cc3c(F)cc(S(N)(=O)=O)cc3F)c2c1-c1ccccc1 [Example 48, 4-((6-ethyl-2-methyl-7-phenyl-1H-imidazo[4,5-c]pyridin-1-yl)methyl)-3,5-difluorobenzenesulfonamide] | < 1 | < 1 |
| Cc1ncc2nc(CN(C)C)n(Cc3c(F)cc(S(N)(=O)=O)cc3F)c2c1-c1ccccc1 [Example 49] | < 1 | < 1 |
| Cc1ncc2nc(CC(F)(F)F)n(Cc3c(F)cc(S(N)(=O)=O)cc3F)c2c1-c1ccccc1 [Example 50, 3,5-difluoro-4-((6-methyl-7-phenyl-2-(2,2,2-trifluoroethyl)-1H-imidazo[4,5-c]pyridin-1-yl)methyl)benzenesulfonamide] | < 1 | < 1 |
| Cc1ncc2nc(CC3CC3)n(Cc3c(F)cc(S(N)(=O)=O)cc3F)c2c1-c1ccccc1 [Example 51, 4-((2-(cyclopropylmethyl)-6-methyl-7-phenyl-1H-imidazo[4,5-c]pyridin-1-yl)methyl)-3,5-difluorobenzenesulfonamide] | < 1 | < 1 |
| Cc1ncc2nc(C)n(Cc3c(F)cc(S(N)(=O)=O)cc3F)c2c1C1CC1 [Example 52, 4-((7-cyclopropyl-2,6-dimethyl-1H-imidazo[4,5-c]pyridin-1-yl)methyl)-3,5-difluorobenzenesulfonamide] | < 1 | < 1 |
| Cc1ncc2nc(C3CC3)n(Cc3ccc(S(N)(=O)=O)cn3)c2c1-c1ccccc1 [Example 53, 6-((2-cyclopropyl-6-methyl-7-phenyl-1H-imidazo[4,5-c]pyridin-1-yl)methyl)pyridine-3-sulfonamide] | < 1 | < 1 |
| Cc1ncc2nc(C3CC3)n(Cc3ccc(S(N)(=O)=O)nc3)c2c1-c1ccccc1 [Example 54, 5-((2-cyclopropyl-6-methyl-7-phenyl-1H-imidazo[4,5-c]pyridin-1-yl)methyl)pyridine-2-sulfonamide] | < 1 | < 1 |
| Cc1cc(Cn2c(C3CC3)nc3cnc(C)c(-c4ccccc4)c32)ccc1S(N)(=O)=O [Example 55, 4-((2-cyclopropyl-6-methyl-7-phenyl-1H-imidazo[4,5-c]pyridin-1-yl)methyl)-2-methylbenzenesulfonamide] | < 1 | < 1 |

From US20250101019A1 (Insilico Medicine IP Limited, priority 2022, published 2025)
